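1) Cells in 96-well plates. 2) Compound, 48 h, 5 concentrations. 3) Linear interpolation between surrounding doses. 4) Unreached endpoint = highest concentration. Here, GI50 denotes the concentration required for 50% inhibition of growth.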 Activity calls are given as the source filed them. Rule as the data show it: active = GI50 up to about 1.1 µM and inactive = higher.
Legend:
Assay in all cases: NCI tumour cell line growth inhibition, 48 h
NCI-H23 = test system: NCI-H23
U-251 = test system: U-251
SR = test system: SR
NCI-H226 = test system: NCI-H226
T47D = test system: T47D
MDA-MB-231 = test system: MDA-MB-231
HOP-62 = test system: HOP-62
UACC-62 = test system: UACC-62
UO-31 = test system: UO-31
SW-620 = test system: SW-620
IGROV-1 = test system: IGROV-1
MCF7 = test system: MCF7
SF-268 = test system: SF-268
SNB-19 = test system: SNB-19
SF-539 = test system: SF-539
LOX IMVI = test system: LOX IMVI
OVCAR-5 = test system: OVCAR-5
786-0 = test system: 786-0
HCT-116 = test system: HCT-116
MOLT-4 = test system: MOLT-4
HCC 2998 = test system: HCC 2998
SK-OV-3 = test system: SK-OV-3
ACHN = test system: ACHN
HL-60 = test system: HL-60
NCI-H460 = test system: NCI-H460
TK-10 = test system: TK-10
OVCAR-4 = test system: OVCAR-4
A549 = test system: A549
NCI/ADR-RES = test system: NCI/ADR-RES
SK-MEL-5 = test system: SK-MEL-5
HOP-92 = test system: HOP-92
CCRF-CEM = test system: CCRF-CEM
UACC-257 = test system: UACC-257
RPMI-8226 = test system: RPMI-8226
Malme-3M = test system: Malme-3M
PC-3 = test system: PC-3
BT-549 = test system: BT-549
SF-295 = test system: SF-295
SN12C = test system: SN12C
NCI-H522 = test system: NCI-H522
A498 = test system: A498
HCT-15 = test system: HCT-15
MDA-MB-435 = test system: MDA-MB-435
HT-29 = test system: HT-29
KM12 = test system: KM12
SK-MEL-28 = test system: SK-MEL-28
RXF 393 = test system: RXF 393
OVCAR-8 = test system: OVCAR-8
DU-145 = test system: DU-145
CAKI-1 = test system: CAKI-1
MDA-N = test system: MDA-N
K562 = test system: K562
OVCAR-3 = test system: OVCAR-3
Hs-578T = test system: Hs-578T
COLO 205 = test system: COLO 205
SNB-75 = test system: SNB-75
EKVX = test system: EKVX
M14 = test system: M14
SK-MEL-2 = test system: SK-MEL-2

**Q.** `C=CCNC(=O)CN(CC(=O)O)C1CCCCC1N(CC(=O)O)CC(=O)O` (centres undefined) was tested. Which GI50 (NCI-H23) did it give?
**A.** > 100 µM (inactive)

**Q.** And the GI50 (U-251)?
**A.** > 100 µM (inactive)

**Q.** And the GI50 (SR)?
**A.** > 100 µM (inactive)

**Q.** What about the GI50 (NCI-H226) of the same compound?
**A.** > 100 µM (inactive)

**Q.** And the GI50 (T47D)?
**A.** > 100 µM (inactive)

**Q.** What about the GI50 (MDA-MB-231) of the same compound?
**A.** > 100 µM (inactive)

**Q.** What about the GI50 (HOP-62) of the same compound?
**A.** > 100 µM (inactive)

**Q.** What about the GI50 (UACC-62) of the same compound?
**A.** > 100 µM (inactive)

**Q.** What about the GI50 (UO-31) of the same compound?
**A.** > 100 µM (inactive)

**Q.** What about the GI50 (SW-620) of the same compound?
**A.** > 100 µM (inactive)

**Q.** What about the GI50 (IGROV-1) of the same compound?
**A.** > 100 µM (inactive)

**Q.** What about the GI50 (MCF7) of the same compound?
**A.** > 100 µM (inactive)

**Q.** What about the GI50 (SF-268) of the same compound?
**A.** > 100 µM (inactive)

**Q.** And the GI50 (SNB-19)?
**A.** > 100 µM (inactive)

**Q.** What about the GI50 (SF-539) of the same compound?
**A.** > 100 µM (inactive)

**Q.** And the GI50 (LOX IMVI)?
**A.** > 100 µM (inactive)

**Q.** What about the GI50 (OVCAR-5) of the same compound?
**A.** > 100 µM (inactive)

**Q.** And the GI50 (786-0)?
**A.** > 100 µM (inactive)

**Q.** What about the GI50 (HCT-116) of the same compound?
**A.** > 100 µM (inactive)

**Q.** And the GI50 (MOLT-4)?
**A.** > 100 µM (inactive)

**Q.** What about the GI50 (HCC 2998) of the same compound?
**A.** > 100 µM (inactive)

**Q.** What about the GI50 (SK-OV-3) of the same compound?
**A.** > 100 µM (inactive)

**Q.** What about the GI50 (ACHN) of the same compound?
**A.** > 100 µM (inactive)

**Q.** What about the GI50 (HL-60) of the same compound?
**A.** > 100 µM (inactive)

**Q.** What about the GI50 (NCI-H460) of the same compound?
**A.** > 100 µM (inactive)

**Q.** What about the GI50 (TK-10) of the same compound?
**A.** > 100 µM (inactive)

**Q.** And the GI50 (OVCAR-4)?
**A.** > 100 µM (inactive)

**Q.** What about the GI50 (A549) of the same compound?
**A.** > 100 µM (inactive)

**Q.** And the GI50 (NCI/ADR-RES)?
**A.** > 100 µM (inactive)

**Q.** And the GI50 (SK-MEL-5)?
**A.** > 100 µM (inactive)

**Q.** And the GI50 (HOP-92)?
**A.** > 100 µM (inactive)

**Q.** What about the GI50 (CCRF-CEM) of the same compound?
**A.** > 100 µM (inactive)

**Q.** And the GI50 (UACC-257)?
**A.** > 100 µM (inactive)

**Q.** What about the GI50 (RPMI-8226) of the same compound?
**A.** > 100 µM (inactive)

**Q.** And the GI50 (Malme-3M)?
**A.** > 100 µM (inactive)

**Q.** And the GI50 (PC-3)?
**A.** > 100 µM (inactive)

**Q.** And the GI50 (BT-549)?
**A.** > 100 µM (inactive)

**Q.** What about the GI50 (SF-295) of the same compound?
**A.** > 100 µM (inactive)

**Q.** And the GI50 (SN12C)?
**A.** > 100 µM (inactive)

**Q.** What about the GI50 (NCI-H522) of the same compound?
**A.** > 100 µM (inactive)

**Q.** And the GI50 (A498)?
**A.** > 100 µM (inactive)

**Q.** And the GI50 (HCT-15)?
**A.** > 100 µM

**Q.** And the GI50 (MDA-MB-435)?
**A.** > 100 µM (inactive)

**Q.** What about the GI50 (HT-29) of the same compound?
**A.** > 100 µM (inactive)

**Q.** What about the GI50 (KM12) of the same compound?
**A.** > 100 µM (inactive)

**Q.** And the GI50 (SK-MEL-28)?
**A.** > 100 µM (inactive)

**Q.** And the GI50 (RXF 393)?
**A.** > 100 µM (inactive)

**Q.** What about the GI50 (OVCAR-8) of the same compound?
**A.** > 100 µM (inactive)

**Q.** What about the GI50 (DU-145) of the same compound?
**A.** > 100 µM (inactive)

**Q.** And the GI50 (CAKI-1)?
**A.** > 100 µM (inactive)

**Q.** And the GI50 (MDA-N)?
**A.** > 100 µM (inactive)

**Q.** What about the GI50 (K562) of the same compound?
**A.** > 100 µM (inactive)

**Q.** And the GI50 (OVCAR-3)?
**A.** > 100 µM (inactive)

**Q.** And the GI50 (Hs-578T)?
**A.** > 100 µM (inactive)

**Q.** And the GI50 (COLO 205)?
**A.** > 100 µM (inactive)

**Q.** And the GI50 (SNB-75)?
**A.** > 100 µM (inactive)

**Q.** What does the source list for `COC(=O)[C@@H]1C[C@@H](O)CN1C(=O)c1ccc([N+](=O)[O-])cc1[N+](=O)[O-]`?
**A.** GI50 (NCI-H23): > 100 µM (inactive); GI50 (U-251): > 100 µM (inactive); GI50 (SR): > 100 µM (inactive); GI50 (NCI-H226): > 100 µM (inactive); GI50 (T47D): > 100 µM (inactive); GI50 (MDA-MB-231): > 100 µM (inactive); GI50 (HOP-62): > 100 µM (inactive); GI50 (UACC-62): > 100 µM (inactive); GI50 (UO-31): > 100 µM (inactive); GI50 (SW-620): > 100 µM (inactive); GI50 (IGROV-1): > 100 µM (inactive); GI50 (MCF7): > 100 µM (inactive); GI50 (SF-268): > 100 µM (inactive); GI50 (SNB-19): > 100 µM (inactive); GI50 (SF-539): > 100 µM (inactive); GI50 (LOX IMVI): > 100 µM (inactive); GI50 (OVCAR-5): > 100 µM (inactive); GI50 (EKVX): > 100 µM (inactive); GI50 (786-0): > 100 µM (inactive); GI50 (HCT-116): > 100 µM (inactive); GI50 (MOLT-4): > 100 µM (inactive); GI50 (HCC 2998): > 100 µM (inactive); GI50 (SK-OV-3): > 100 µM (inactive); GI50 (ACHN): > 100 µM (inactive); GI50 (HL-60): > 100 µM (inactive); GI50 (NCI-H460): > 100 µM (inactive); GI50 (TK-10): > 100 µM (inactive); GI50 (OVCAR-4): > 100 µM (inactive); GI50 (A549): > 100 µM (inactive); GI50 (NCI/ADR-RES): > 100 µM (inactive); GI50 (SK-MEL-5): 96.6 µM (inactive); GI50 (HOP-92): > 100 µM (inactive); GI50 (CCRF-CEM): > 100 µM (inactive); GI50 (UACC-257): > 100 µM (inactive); GI50 (RPMI-8226): > 100 µM (inactive); GI50 (PC-3): > 100 µM (inactive); GI50 (BT-549): > 100 µM (inactive); GI50 (SF-295): > 100 µM (inactive); GI50 (SN12C): > 100 µM (inactive); GI50 (NCI-H522): > 100 µM (inactive); GI50 (A498): > 100 µM (inactive); GI50 (HCT-15): > 100 µM; GI50 (MDA-MB-435): > 100 µM (inactive); GI50 (HT-29): 51.2 µM (inactive); GI50 (KM12): > 100 µM (inactive); GI50 (M14): > 100 µM (inactive); GI50 (SK-MEL-28): > 100 µM (inactive); GI50 (RXF 393): > 100 µM (inactive); GI50 (OVCAR-8): > 100 µM (inactive); GI50 (DU-145): > 100 µM (inactive); GI50 (CAKI-1): > 100 µM (inactive); GI50 (MDA-N): > 100 µM (inactive); GI50 (K562): > 100 µM (inactive); GI50 (OVCAR-3): 39.2 µM (inactive); GI50 (Hs-578T): > 100 µM (inactive); GI50 (SK-MEL-2): > 100 µM (inactive); GI50 (COLO 205): 50 µM (inactive); GI50 (SNB-75): > 100 µM (inactive)
